Experiment [1] addresses T1, interaction between GMPPNP-bound recombinant K-Ras4B G12C mutant protein and cRAF RAS-binding domain (cRAF-RBD) (Homo sapiens, UniProt P01116, G12C).
T1 construct: His-tag (N)
The experiment can be described thus: Inhibitory activity on interaction between KRAS G12C and cRAF (Alpha technology). An outline of the steps:
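His-tagged K-Ras4B G12C (aa 1-169), GMPPNP-loaded, preincubated with compound 1 h at 25° C in pH 7.5 Tris buffer with MgCl2, TCEP, Tween 20. cRAF-RBD (aa 50-132) and Alpha reagents then added for 1.5 h; Alpha signal normalised to DMSO (0%) and GDP-bound KRAS (100%); IC50 from dose titration.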

Another experiment relates to MIA PaCa-2 cells. The experiment can be described thus: Growth inhibition activity on KRAS-G12C mutant cell line (CellTiter-Glo 3D). The experiment is classed as cell-based, human. The settings on record: MIA PaCa-2, 3-day culture with compound. An outline of the steps:
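MIA PaCa-2 cells in RPMI1640 with 10% FBS, U-bottom wells, cultured 1 day before compound (0.2% DMSO final), then 3 days at 37 °C, 5% CO2. Viability by CellTiter-Glo 3D luminescence; growth inhibition versus untreated wells gives IC50 (nM).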

Setting [2] is: Homo sapiens, MIA PaCa-2, 72 h, Table 3-1.
Setting [3] is: GMPPNP-bound KRAS G12C incubated with compound 25° C. 1 hour, Table 2-1, read-out: IC50.
The mark [4] stands for this setting: IC50, GMPPNP-bound KRAS G12C incubated with compound 25° C. 1 hour, Table 2.
Where [5] appears, read: Homo sapiens, MIA PaCa-2, 72 h, Table 3.

Like-named read-outs stand apart in the source and are kept apart here.

By IC50 is commonly meant the concentration that inhibits the measured activity by half.

T1 sequence (P01116 with tags, fused parts or gaps isoform P01116-2 G12C): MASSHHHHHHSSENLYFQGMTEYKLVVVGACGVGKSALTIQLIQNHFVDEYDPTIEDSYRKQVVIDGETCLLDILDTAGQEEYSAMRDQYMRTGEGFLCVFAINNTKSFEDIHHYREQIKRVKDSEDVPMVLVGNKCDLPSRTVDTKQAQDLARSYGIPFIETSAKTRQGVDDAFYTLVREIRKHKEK

On to `Cc1cc2c(nc(C)n2C)c2c1-c1cccc3c(C(=O)c4cc(F)c(NC(=O)/C=C/CNC5(C)COC5)c(F)c4)cn(c13)CCN2C` (single isomer, unassigned) [Example 65, (E)-N-(2,6-difluoro-4-(6,8,9,11-tetramethyl-8,11,12,13-tetrahydro-imidazo[4″,5″:5′,6′]benzo-[1′,2′:5,6][1,4]diazocino-[7,8,1-hi]indole-2-carbon-yl)phenyl)-4-((3-methyl-oxetan-3-yl)amino)but-2-enamide], for which the IC50 is 69.5 nM in experiment [1] (IC50, GMPPNP-bound KRAS G12C incubated with compound 25° C. 1 hour, Table 2-1) and 95.1 nM with MIA PaCa-2 cells (setting [2]).
Consider `Cn1cnc2c3c(c(C(F)(F)F)cc21)-c1cccn2c(C(=O)c4cc(F)c(NC(=O)/C=C/CN5CC6CCC5C6)c(F)c4)cc(c12)CCO3` (centres unmarked) [Example 234, (E)-4-(2-azabicyclo-[2.2.1]heptan-2-yl)-N-(2,6-difluoro-4-(9-meth-yl-7-(trifluoromethyl)-13,14-dihydro-9H-imidazo-[4″,5″:5′,6′]-benzo[1′,2′:2,3]oxocino-[4,5,6-hi]indolizine-2-carbonyl)phenyl)but-2-enamide], for which the values for the IC50 (in experiment [1] (setting [3]); in the experiment with MIA PaCa-2 cells (setting [2])) were 20.5 nM and 7.08 nM, respectively.
Take `Cn1cnc2c3c(c(C(F)(F)F)cc21)-c1cccn2c(C(=O)c4cc(F)c(NC(=O)/C=C/CN5CC[C@H]6CC[C@H](O)[C@H]65)c(F)c4)cc(c12)CCO3` (racemic) [Example 163]: the IC50 in experiment [1] (setting [3]) is 33.5 nM; in the experiment on MIA PaCa-2 cells (setting [2]), 42.7 nM.
Regarding `Cc1nnc2c3c(c(C(F)(F)F)cn12)-c1cccn2c(C(=O)c4cc(F)c(NC(=O)/C=C/CNC5(C)CC5)c(F)c4)cc(c12)CCN3C` (single isomer, unassigned) [Example 223, (E)-N-(4-(10,13-dimethyl-7-(trifluoromethyl)-14,15-dihydro-13H-[1,2,4]-triazolo[4″,3″:1′,2′]-pyrido[3′,4′:2,3]azocino-[4,5,6-hi]indolizine-2-carbonyl)-2,6-difluoro-phenyl)-4-((1-methyl-cyclopropyl)amino)but-2-enamide], the IC50 in experiment [1] (setting [3]) worked out at 20.1 nM; in the experiment on MIA PaCa-2 cells (setting [2]), 23.7 nM.
Turning to `CO[C@H]1CC[C@H](NC/C=C/C(=O)Nc2c(F)cc(C(=O)c3cn4c5c(cccc35)-c3c(C)cc5c(nc(C)n5C)c3CCC4)cc2F)CC1` [Example 27, (E)-N-(2,6-difluoro-4-(6,8,9-trimethyl-8,11,12,13-tetrahydroimidazo[4″,5″:3′,4′]benzo[1′,2′:4,5]azocino[3,2,1-hi]indole-2-carbonyl)phenyl)-4-(((1r,4r)-4-methoxycyclohexyl)amino)but-2-enamide], the IC50 in experiment [1] (setting [4]) turned out to be 64 nM; in the experiment on MIA PaCa-2 cells (setting [5]) it was 88 nM.
For the compound `Cc1nc2c3c(c(C(F)(F)F)cc2n1C)-c1cccn2c(C(=O)c4cc(F)c(NC(=O)/C=C/CN[C@@H]5COC[C@H]5O)c(F)c4)cc(c12)CCN3C` [Example 137], the results for the IC50 (in experiment [1] (setting [3]); in the experiment with MIA PaCa-2 cells (setting [2])) were 33.5 nM and 14.9 nM, respectively.
In the same order, the values of `COCc1nc2c3c(c(C(F)F)cc2n1C)-c1cccn2c(C(=O)c4cc(F)c(NC(=O)/C=C/CNC5(C)COC5)c(F)c4)cc(c12)CCN3C` [Example 224, (E)-N-(4-(7-(difluoromethyl)-10-(methoxymethyl)-9,12-dimethyl-9,12,13,14-tetrahydroimidazo[4″,5″:5′,6′]benzo[1′,2′:2,3]azocino[4,5,6-hi]indolizine-2-carbonyl)-2,6-difluorophenyl)-4-((3-methyloxetan-3-yl)amino)but-2-enamide] are 28.2 nM and 17.8 nM.
In the same order, the values of `COc1cc2c(nc(C)n2C)c2c1-c1cccn3c(C(=O)c4cc(F)c(NC(=O)/C=C/CNC5(C)CCCC5)c(F)c4)cc(c13)CCN2C` [Example 245, (E)-N-(2,6-difluoro-4-(7-methoxy-9,10,12-trimeth-yl-9,12,13,14-tetrahydro-imidazo[4″,5″:5′,6′]benzo-[1′,2′:2,3]azocino[4,5,6-hi]indolizine-2-carbonyl)-phenyl)-4-((1-methyl-cyclopentyl)amino)but-2-enamide] are 33.1 nM and 25.4 nM.
As for `Cc1cc2c(nc(C)n2C)c2c1-c1cccc3c(C(=O)c4cc(F)c(NC(=O)/C=C/CNC(C)(C)C)c(F)c4)cn(c13)CCO2` [Example 13, (E)-4-(tert-butylamino)-N-(2,6-difluoro-4-(6,8,9-trimethyl-12,13-dihydro-SH-imidazo[4″,5″:3′,4′]benzo[1′,2:7,8][1,4]oxazocino[6,5,4-hi]indole-2-carbonyl)phenyl)but-2-enamide], the IC50 in experiment [1] (setting [4]) was 17 nM; with MIA PaCa-2 cells (setting [5]) it was 59 nM.
With `COc1cc2c(nc(C(F)(F)F)n2C)c2c1-c1cccn3c(C(=O)c4cc(F)c(NC(=O)/C=C/CN[C@H]5CCOC5)c(F)c4)cc(c13)CCN2C` (single isomer, unassigned) [Example 168], the IC50 in experiment [1] (setting [3]) turned out to be 43.8 nM; with MIA PaCa-2 cells (setting [2]), 15.6 nM.
On to `CO[C@H]1CC[C@H](NC/C=C/C(=O)Nc2c(F)cc(C(=O)c3cn4c5c(cccc35)-c3c(cccc3C(F)(F)F)OCC4)cc2F)CC1` (single isomer, unassigned) [Example 11-1], for which the figures for the IC50 (in experiment [1] (setting [4]); in the experiment on MIA PaCa-2 cells (Table 3)) were more than 6700 nM and 7800 nM, respectively.
`Cc1nc2c3c(c(C(F)(F)F)cc2n1C)-c1cccn2c(C(=O)c4cc(F)c(NC(=O)/C=C/CNC5CCP(C)(=O)CC5)c(F)c4)cc(c12)CCO3` (centres unmarked) [Example 36]: the IC50 in experiment [1] (GMPPNP-bound KRAS G12C incubated with compound 25° C. 1 hour, Table 2, read-out: IC50) worked out at 13 nM; in the experiment with MIA PaCa-2 cells (setting [5]), 150 nM.
As to `CN1CCc2nc(C(=O)c3cc(F)c(NC(=O)C=CCNC4(C)COC4)c(F)c3)n3cccc(c23)-c2c(C(F)(F)F)cc3c(ncn3C)c21` [Example 157, (E)-N-(4-(8,11-dimethyl-6-(trifluoromethyl)-8,11,12,13-tetrahydro-1,2a,8,10,11-pentaaza-cycloocta[1,2,3-cd:5,4-e′]-diindene-2-carbonyl)-2,6-difluorophenyl)-4-((3-methyloxetan-3-yl)-amino)but-2-enamide], the IC50 in experiment [1] (setting [3]) came out at 67.6 nM; in the experiment with MIA PaCa-2 cells (setting [2]), 62.1 nM.
In the same order, the values of `Cn1cnc2c3c(c(C(F)(F)F)cc21)-c1cccn2c(C(=O)c4cc(F)c(NC(=O)/C=C/CN5CCC[C@@](C)(O)C5)c(F)c4)cc(c12)CCO3` [Example 195, (R,E)-N-(2,6-difluoro-4-(9-methyl-7-(trifluoro-meth-yl)-13,14-dihydro-9H-imidazo[4″,5″:5′,6′]-benzo[1′,2′:2,3]oxocino-[4,5,6-hi]indolizine-2-carbonyl)phenyl)-4-(3-hydroxy-3-methylpiper-idin-1-yl)but-2-enamide] are 39.4 nM and 19.3 nM.
Consider `CO[C@H]1CC[C@H](NC/C=C/C(=O)Nc2c(F)cc(C(=O)c3cn4c5c(cccc35)-c3c(C)cc5c(nc(C)n5C)c3OCC(F)(F)C4)cc2F)CC1` [Example 26, (E)-N-(4-(13,13-difluoro-6,8,9-trimethyl-13,14-dihydro-8H,12H-imidazo[4″,5″:3′,4′]benzol[1′,2′:8,9][1,5]oxazonino[7,6,5-hi]indole-2-carbonyl)-2,6-difluorophenyl)-4-(((1r,4r)-4-methoxycyclohexyl)amino)but-2-enamide], for which the IC50 in experiment [1] (setting [4]) was 100 nM; in the experiment on MIA PaCa-2 cells (setting [5]), 130 nM.
For `CN1CCc2cc(C(=O)c3cc(F)c(NC(=O)/C=C/CN[C@H]4CCOC4)c(F)c3)n3cccc(c23)-c2c(C(F)(F)F)cc3c(ncn3C3CC3)c21` [Example 166, (S,E)-N-(4-(9-cycloprop-yl-12-methyl-7-(trifluoro-methyl)-9,12,13,14-tetra-hydroimidazo[4″,5″:5′,6′]-benzo[1′,2′:2,3]azocino-[4,5,6-hi]indolizine-2-carbonyl)-2,6-difluoro-phenyl)-4-((tetrahydro-furan-3-yl)amino)but-2-enamide], the IC50 in experiment [1] (setting [3]) was 33.7 nM; in the experiment on MIA PaCa-2 cells (setting [2]), 51.2 nM.

Source of the values: patent US20240262842A1, “SMALL MOLECULE INHIBITORS OF KRAS G12C MUTANT” (Merck Sharp & Dohme LLC, priority 2021, published 2024).
